Values after ≈ are worked out from the molar mass of the structure shown. Values joined by “and” are separate entries in the source; they are usually repeats but may differ in a detail not shown here. Equal values may be shown once.
Legend:
[1] = test system: mice (C57B1/6xDBA/2)F1 B6D2F1; settings: for LD50 / MTD: single injection into tail vein, probit analysis
Procedure: Male mice of hybrids of first generation (C57B1/6xDBA/2)F1 B6D2F1, weight 20-22 g., received from the Central farm. “Kryukovo” of Russian Academies of Medical Science (RAMS) were used. Animals were maintained in a vivarium in plastic cages (with hardwood bedding in environmentally controlled conditions: 24±1° C., 12/12 hours light/dark cycle) on a standard diet of bricketed forages with easy access to drinking water (ad libitum). After a 2-week quarantine period, healthy animals were used in experimental work.
The solutions were prepared as follows: dry antibiotic substances (5 mg) were mixed with dry sodium deoxycholate (4.1 mg) in a sterile glass vial. 10 mL of phosphate buffer (NaH2PO4—1.59 g; Na2HPO4—0.96 g; H2O—to 100 mL) was added to the mix and the suspension was immediately subjected to vigorous shaking for 10 minutes until homogeneous suspensions were formed.
Preparations of amphotericin B and S44HP were also prepared in the same way.
The antibiotic preparations were singly injected into the mice's tail vein within 1-1.5 hours after the preparation of solutions. […] Each antibiotic was used in a range of doses resulting in 0% to 100% lethality and a minimum of 3 intermediate doses. Animals were randomized into groups, each containing 6 mice.

[2] = test system: Candida albicans; test: Neutropenic mouse model of disseminated candidosis; assay type: in vivo
Procedure: Mice were rendered neutropenic by injection with cyclophosphamide monohydrate (Fluka, BioChemika, Sigma-Aldrich, Switzerland) intraperitoneally 2×100 mg/kg of body weight 1 day before infection.

[3] = test system: Candida albicans ATCC 14053; test: Antifungal susceptibility study (1), broth microdilution MIC; assay type: cell-based; settings: lowest concentration preventing any visible growth, read at 48 hours, 35° C., RPMI 1640 pH 7.0
Method in brief: (§1)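 Broth microdilution in test medium at pH 7.0 with two-fold compound dilutions (DMSO stocks diluted 50-fold into medium), inoculated with freshly grown yeast cultures. Plates were incubated without agitation at 35° C. for C. albicans or 25° C. for C. humicolus. MIC was taken as the concentration with no visible growth, read at 48 hours.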

[4] = test system: Cryptococcus humicolus ATCC 9949; test: as above; assay type: cell-based; settings: lowest concentration preventing any visible growth, read at 48 hours, 25° C., RPMI 1640 pH 7.0
Method in brief: as §1

[5] = test system: Aspergillus niger ATCC 16404; test: as above; assay type: cell-based; settings: lowest concentration preventing any visible growth, read at 48 hours, 35° C., RPMI 1640 pH 7.0
Method in brief: (§2)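 Broth microdilution was run at pH 7.0 with compounds diluted from DMSO solutions and mixed 1:1 with conidial inoculum. Spore suspensions were adjusted to OD530 0.09-0.11 for A. niger or 0.15-0.17 for F. oxysporum, then diluted 1:50. Plates were incubated at 35° C without agitation, and MIC was read at 48 hours as absence of visible growth.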

[6] = test system: Fusarium oxysporum VKM F-140; test: as above; assay type: cell-based; settings: lowest concentration preventing any visible growth, read at 48 hours, 35° C., RPMI 1640 pH 7.0
Method in brief: as §2

[7] = test system: Candida albicans ATCC 10231; test: Antifungal susceptibility study (2), MIC50 by OD490 growth; assay type: cell-based; settings: 50% growth inhibition from regression curve, M19 medium without NaCl, 30° C.
Procedure: The anti-fungal activity of several of the nystatin derivatives was further investigated. […] The anti-fungal activity of a number of the nystatin derivatives was therefore determined in a method which is designed to be more sensitive.
The test organism used for the further testing of polyene macrolide bioactivity was Candida albicans ATCC 10231, grown in 120 μl of standard M19 medium without NaCl (with an inoculum of 1000 cfu per well) and 30 μl of diluted polyene macrolide samples. The antibiotics were diluted in MeOH in series ensuring a spectrum of concentrations which yielded results ranging from complete growth inhibition to no inhibition of the test organism. The test organism cultures with antibiotic dilutions were incubated in 96-well microtiter plates at 30° C. without shaking, and growth was measured as OD490 after 12, 14 and 16 hours on a SpectraMax Plus microtiter plate reader. OD was plotted against antibiotic concentration, and MIC50 was estimated from the regression curve at 50% growth inhibition.

[8] = test system: erythrocytes; test: In vitro toxicity study, haemolysis (Tables 11 and 12); assay type: cell-based, horse
[9] = test system: yeasts and filamentous fungi (moulds); test: Antifungal susceptibility study (1), overall comparison across the test organisms; assay type: cell-based; settings: Table 5 MICs
Procedure: The organisms used for susceptibility testing were: Candida albicans ATCC 14053, Cryptococcus humicolus ATCC 9949, Aspergillus niger ATCC 16404 and Fusarium oxysporum VKM F-140 (=CMI, IMI 90473). Organisms were stored on potato dextrose agar […] 50% glycerol solution at -70° C. For short-term storage, stock cultures were stored on agar […] 4° C. The cultures of yeasts were sub-cultured onto Sabouraud dextrose (SAB) agar and incubated for 24 hours at 35° C. (Candida albicans) or for 48 hours at 25° C. (Cryptococcus humicolus) to obtain a freshly grown pure culture. The cultures of moulds were sub-cultured onto potato dextrose agar and incubated for 7 days at 35° C. […] (Fusarium oxysporum) to ensure maximum sporulation. Sterile 96-well flat-bottomed microtitration plates were used for testing. 100 μl of diluted inocula were dispensed into each microdilution well containing 100 μl of the double dilutions of compounds. Drug-free and yeast/mould-free controls were included. Microdilution trays were incubated at 35° C. (Candida albicans and moulds) or 25° C. (Cryptococcus humicolus) without agitation and observed for the presence or absence of visible growth. […] Minimal inhibitory concentrations (MICs) were read at 48 hours.

Row | Compound | acute toxicity, times lower than amphotericin B [1] [times] | LD50 [1] [mg/kg] | MTD [1] [mg/kg] | activity compared with amphotericin B [2] | MIC Candida albicans ATCC 14053 [3] [µg/mL] | MIC Cryptococcus humicolus ATCC 9949 [4] [µg/mL] | MIC Aspergillus niger ATCC 16404 [5] [µg/mL] | MIC Fusarium oxysporum VKM F-140 [6] [µg/mL] | MIC50 [7] [µg/mL] | Haemolysis of erythrocytes, Mean ± SE ([8]; 5 μg/mL (Table 11)) [%] | Haemolysis of erythrocytes ([8]; 5 μg/mL, individual blood samples # 1-3 (Table 11)) | anti-fungal activity compared with Amphotericin B and S44HP [9]
1 | CC1C=CC=CC=CC=CC=CC=CC=CC(OC2OC(C)C(O)C(N)C2O)CC2OC(O)(CC(O)CC(O)CC(O)CC(O)CC(O)CC(=O)OC(C)C(C)C1O)CC(O)C2C.NC(CCC(=O)O)C(=O)O (stereo not shown) [Compound 26] | ~20 | 50.0 | 43.1 | less active than amphotericin B |  |  |  |  |  |  |  | 
2 | CC1C=CC=CC=CC=CC=CC=CC=CC(OC2OC(C)C(O)C(N)C2O)CC2OC(O)(CC(O)CCCC(O)CC(O)CC(O)CC(=O)OC(C)C(C)C1O)CC(O)C2C.NC(CCC(=O)O)C(=O)O (stereo not shown) [Compound 25] | ~20 | 50.8 | 42.8 | less active than amphotericin B |  |  |  |  |  |  |  | 
3 | CC1C=CC=CC=CC=CC=CC=CC=CC(OC2OC(C)C(O)C(N)C2O)CC2OC(O)(CC(O)C(O)CCC(O)CC(O)CC(O)CC(=O)OC(C)C(C)C1O)CC(O)C2C(=O)NCCCO (stereo not shown) [Compound 12] |  |  |  |  | 1 (≈ 1.02 µM) | 1 (≈ 1.02 µM) | 2 (≈ 2.04 µM) | 2 (≈ 2.04 µM) | 0.14 (≈ 0.143 µM) | 4.4 ± 0.3 | 5% and 4.3% and 4.0% | comparable anti-fungal activity to Amphotericin B and S44HP

Source: patent publication US8415312B2, “Compound which is a nystatin derivative” (Biosergen AS, priority 2007, dated 2013)
